We go through 26 compounds from ChEMBL document CHEMBL1128555, “Derivatives of 5-[[1-(4'-carboxybenzyl)imidazolyl]methylidene]hydantoins as orally active angiotensin II receptor antagonists” (J Med Chem, 1995).

In experiment [1] the test system is Rattus norvegicus. Kind of experiment: The compound was tested for antihypertensive activity in Renal Hypertensive Rats(RHR) at 30 mg/Kg dose after oral administration; inactive. It counts as functional, organism-based.
Experiment [2] has as its target T1, Angiotensin II receptor (AT-1) type-1 (Rattus norvegicus, UniProt P29089+P25095).
T1 sequence (P29089 whole entry): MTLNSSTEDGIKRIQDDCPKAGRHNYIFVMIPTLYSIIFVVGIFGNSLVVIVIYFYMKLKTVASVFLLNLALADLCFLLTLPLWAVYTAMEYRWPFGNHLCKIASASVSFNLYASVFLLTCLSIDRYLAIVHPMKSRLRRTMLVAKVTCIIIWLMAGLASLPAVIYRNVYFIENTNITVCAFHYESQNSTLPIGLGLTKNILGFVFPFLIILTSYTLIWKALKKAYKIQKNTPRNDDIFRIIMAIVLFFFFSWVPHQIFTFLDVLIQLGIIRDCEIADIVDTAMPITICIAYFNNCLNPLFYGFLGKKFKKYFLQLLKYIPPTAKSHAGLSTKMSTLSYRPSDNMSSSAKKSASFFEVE
T1 sequence (P25095 whole entry): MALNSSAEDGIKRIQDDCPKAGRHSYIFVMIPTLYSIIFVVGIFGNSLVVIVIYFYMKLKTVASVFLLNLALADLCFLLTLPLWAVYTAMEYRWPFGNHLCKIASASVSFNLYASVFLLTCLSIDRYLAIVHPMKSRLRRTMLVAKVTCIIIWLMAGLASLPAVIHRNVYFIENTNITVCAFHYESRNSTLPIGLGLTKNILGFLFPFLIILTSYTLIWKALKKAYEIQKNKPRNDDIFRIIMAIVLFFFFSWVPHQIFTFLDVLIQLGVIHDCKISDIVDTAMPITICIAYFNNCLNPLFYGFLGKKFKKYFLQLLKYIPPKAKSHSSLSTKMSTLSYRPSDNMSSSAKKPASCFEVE
In words: Binding affinity expressed as IC50 to the Angiotensin II receptor, type 1, from rat liver membrane.

In experiment [3] the target is Angiotensin II receptor type-1 (Oryctolagus cuniculus) (UniProt P34976). Kind of experiment: Inhibition of angiotensin II induced contraction in rabbit aortic ring, activity is expressed as IC50.
Sequence of Angiotensin II receptor type-1 (Oryctolagus cuniculus) (P34976 whole entry, looked up): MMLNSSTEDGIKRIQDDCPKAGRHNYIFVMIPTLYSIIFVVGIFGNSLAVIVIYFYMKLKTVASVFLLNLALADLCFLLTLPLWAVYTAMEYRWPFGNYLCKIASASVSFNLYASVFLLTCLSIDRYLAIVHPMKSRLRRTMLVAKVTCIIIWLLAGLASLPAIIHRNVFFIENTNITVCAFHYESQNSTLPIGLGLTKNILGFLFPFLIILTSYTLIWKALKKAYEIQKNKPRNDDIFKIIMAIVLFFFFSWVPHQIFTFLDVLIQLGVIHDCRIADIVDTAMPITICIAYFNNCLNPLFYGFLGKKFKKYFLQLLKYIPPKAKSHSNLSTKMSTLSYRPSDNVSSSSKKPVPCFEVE
In experiment [4] the target is Angiotensin II receptor (AT-1) type-1 (Rattus norvegicus) (UniProt P29089+P25095). In words: Antihypertensive activity in renal hypertensive rats (RHR) at 30 mg/Kg dose after oral administration. The format is functional, organism-based.
Experiment [5] relates to Rattus norvegicus. In words: The compound was tested for antihypertensive activity in Renal Hypertensive Rats(RHR) at following doses after oral administration. of 10 mg/kg. The format is functional.
Experiment [6] has as its system Monkey. In words: Baseline blood pressure was determined at 10 mg/kg in salt-deplete Normotensive Monkeys. The format is functional, Cercopithecidae.
Experiment [7] relates to Monkey. Kind of experiment: blood pressure determined at 10 mg/kg in salt-deplete Normotensive Monkeys. The format is functional, Cercopithecidae.
Experiment [8] has as its system Monkey. Kind of experiment: Minimum blood pressure was determined at 10 mg/kg in salt-deplete Normotensive Monkeys. The format is functional, Cercopithecidae.
Experiment [9] concerns Rattus norvegicus. In words: The compound was tested for antihypertensive activity in Renal Hypertensive Rats(RHR) at 10 mg/Kg dose after oral administration. It counts as functional.
The test system of experiment [10] is Monkey. In words: Blood pressure determined at 10 mg/kg in salt-deplete Normotensive Monkeys. It counts as functional, Cercopithecidae.

For orientation: IC50 means the midpoint of a concentration-inhibition curve.

The source made the active and inactive calls. The calls are words filed in the database; no cut-off is given here. A value given as a limit tells only on which side of the number the result lay.

Turning to `CCCCc1ncc(/C=C2\C(=O)NC(=O)N2Cc2cccs2)n1Cc1ccc(C(=O)O)cc1`, in the experiment with Rattus norvegicus [1], the Max result was “inactive”. The compound further came in with a 50% inhibitory concentration (IC50) in experiment [2] of 2.6 nM.

On to `CCCCc1ncc(/C=C2/C(=O)N(CCCC)C(=O)N2Cc2csc(N)n2)n1Cc1ccc(C(=O)O)cc1`, for which the IC50 in experiment [3] was 2.9 nM; in [2], 0.6 nM. For the same compound, in experiment [4], the Max result was “inactive”.

In the case of `CCCCc1ncc(/C=C2/C(=O)N(CCCC)C(=O)N2Cc2csc(C)c2)n1Cc1ccc(C(=O)O)cc1`, the IC50 came out at 9.2 nM in experiment [3] and 0.7 nM in experiment [2]. Also, the Max in the experiment on Rattus norvegicus [5] is recorded as -28%. The Maximum blood pressure change in [4] was -23%.

Consider `CCCCc1ncc(/C=C2/C(=O)N(CCCC)C(=O)N2Cc2ccccn2)n1Cc1ccc(C(=O)OC)cc1`, for which the results for the IC50 in experiment [3] and in experiment [2] were 490 nM and 5.8 nM, respectively. Moreover, in experiment [4], the Maximum blood pressure change was -20%.

As to `CCCCc1ncc(/C=C2/C(=O)NC(=O)N2CCCC)n1Cc1ccc(C(=O)OC)cc1`, the IC50 in experiment [3] came out at 30 nM; in experiment [2] it was 3.5 nM. In [4], the Maximum blood pressure change is -11%.

Regarding `CCCCc1ncc(/C=C2/C(=O)NC(=O)N2Cc2cccs2)n1Cc1ccc(C(=O)O)cc1`, the IC50 in experiment [3] turned out to be 18 nM; in experiment [2], 2.3 nM. Moreover, the Maximum blood pressure change in experiment [4] was -21%.

As to `CCCCc1ncc(/C=C2/C(=O)N(CCCC)C(=O)N2Cc2ccc(Cl)cc2)n1Cc1ccc(C(=O)OC)cc1`, the IC50 in [3] is given as 500 nM; in experiment [2], 17.6 nM. Moreover, the Maximum blood pressure change in experiment [4] was -15%.

`CCCCc1ncc(/C=C2/C(=O)N(CCCC)C(=O)N2Cc2csc(C)n2)n1Cc1ccc(C(=O)OC)cc1`: the Blood pressure is 101 mmHg in the experiment on Monkey [6], 88 mmHg in the experiment with Monkey [7] and 74 mmHg with Monkey [8]. Moreover, the values for the concentration for half-maximal inhibition (IC50) in experiment [3] and in experiment [2] were 350 nM and 3.8 nM, respectively. The Max in the experiment with Rattus norvegicus [9] was -25%. For the same compound, the Maximum blood pressure change in [4] is -40%.

Regarding `CCCCc1ncc(/C=C2/C(=O)N(CCCC)C(=O)N2Cc2ccc(C)s2)n1Cc1ccc(C(=O)O)cc1`, the IC50 was determined as 5.3 nM in experiment [3] and 0.6 nM in experiment [2]. Further, the Maximum blood pressure change in experiment [4] was -22%.

For the compound `CCCCc1ncc(/C=C2/C(=O)N(CCCC)C(=O)N2Cc2cc(C)cs2)n1Cc1ccc(C(=O)O)cc1`, the values for the IC50 in [3] and in [2] were 21 nM and 1.5 nM, respectively. The Maximum blood pressure change in experiment [4] was -16%.

Regarding `CCCCc1ncc(/C=C2/C(=O)N(CCCC)C(=O)N2Cc2csc(C)n2)n1Cc1ccc(C(=O)O)cc1`, the 50% inhibitory concentration (IC50) in experiment [3] amounted to 2.6 nM; in [2] it was 1.2 nM. The Maximum blood pressure change in experiment [4] was -34%.

As for `CCCCc1ncc(/C=C2/C(=O)N(CCCC)C(=O)N2Cc2ccsc2)n1Cc1ccc(C(=O)O)cc1`, the IC50 in experiment [3] is on record as 10 nM; in experiment [2] it was 0.9 nM. Besides, in the experiment on Rattus norvegicus [5], the Max is -28%. Further, the Maximum blood pressure change in experiment [4] is -42%.

On to `CCCCc1ncc(/C=C2/C(=O)N(CCCC)C(=O)N2Cc2cccs2)n1Cc1ccc(C(=O)O)cc1`, for which the half-inhibitory concentration (IC50) in [3] was determined as 13 nM; in experiment [2] it was 0.7 nM. In experiment [4], the Maximum blood pressure change was -28%.

Turning to `CCCCc1ncc(/C=C2/C(=O)N(CCCC)C(=O)N2Cc2ccno2)n1Cc1ccc(C(=O)OC)cc1`, the IC50 in experiment [3] is over 100 nM; in [2] it was 10.1 nM. Also, the Maximum blood pressure change in experiment [4] is -23%.

For the compound `CCCCc1ncc(/C=C2/C(=O)N(CCCC)C(=O)N2Cc2csc(C)n2)n1Cc1ccc(C(=O)O)cc1Cl`, the Blood pressure in the experiment on Monkey [6] was 100 mmHg; with Monkey [8], 80 mmHg; in the experiment on Monkey [10], 85 mmHg.

In the case of `CCCCc1ncc(/C=C2/C(=O)NC(=O)N2CCCC)n1Cc1ccc(-c2ccccc2-c2nn[nH]n2)cc1`, the IC50 is recorded as 40 nM in experiment [3] and 1.4 nM in experiment [2]. Besides, in [4], the Maximum blood pressure change amounted to 0%.

`CCCCc1ncc(/C=C2\C(=O)NC(=O)N2CCCC)n1Cc1ccc(C(=O)O)cc1` registered an IC50 in experiment [3] of 44 nM. Besides, the Max entry with Rattus norvegicus [1] was “inactive”.

As to `CCCCc1ncc(/C=C2/C(=O)NC(=O)N2Cc2cccs2)n1Cc1ccc(C(=O)OC)cc1`, the half-maximal inhibitory concentration (IC50) in experiment [3] was found to be 28 nM; in [2], 7.1 nM. The Maximum blood pressure change in experiment [4] was -19%.

Consider `CCCCCCN1C(=O)/C(=C/c2cnc(CCCC)n2Cc2ccc(C(=O)OC)cc2)N(Cc2csc(C)n2)C1=O`, for which the IC50 in [3] is on record as over 100 nM; in [2], 5.3 nM. For the same compound, in experiment [4], the Maximum blood pressure change is -34%.

Consider `CCCCc1ncc(/C=C2/C(=O)N(CCCC)C(=O)N2Cc2cccs2)n1Cc1ccc(C(=O)OC)cc1`, for which the 50% inhibitory concentration (IC50) in [3] was 370 nM; in [2], 3.4 nM. Also, the Maximum blood pressure change in [4] is -28%.

Take `CCCCc1ncc(/C=C2/C(=O)NC(=O)N2Cc2ccc(Cl)cc2)n1Cc1ccc(C(=O)O)cc1`: the results for the 50% inhibitory concentration (IC50) in experiment [3] and in experiment [2] were 28 nM and 3 nM, respectively. In addition, the Maximum blood pressure change in experiment [4] was -17%.

For the compound `CCCCc1ncc(/C=C2/C(=O)N(CCCC)C(=O)N2CCCC)n1Cc1ccc(C(=O)OC)cc1`, the IC50 in experiment [3] is given as 460 nM; in [2], 8.5 nM. Further, the Maximum blood pressure change in experiment [4] is -27%.

`CCCCc1ncc(/C=C2/C(=O)N(CCCC)C(=O)N2Cc2ccoc2)n1Cc1ccc(C(=O)OC)cc1`: the half-inhibitory concentration (IC50) in experiment [3] is over 100 nM; in [2], 8.3 nM. Moreover, in experiment [4], the Maximum blood pressure change was -22%.

For the compound `CCCCc1ncc(/C=C2/C(=O)N(CCCC)C(=O)N2CCCC)n1Cc1ccc(C(=O)O)cc1`, the IC50 in experiment [3] is reported as 14 nM; in [2] it was 1.3 nM. Moreover, the Max with Rattus norvegicus [9] is given as -21%. Also, the Maximum blood pressure change in experiment [4] is -45%.

For the compound `CCCCc1ncc(/C=C2/C(=O)NC(=O)N2CCCC)n1Cc1ccc(NS(=O)(=O)C(F)(F)F)cc1`, the half-inhibitory concentration (IC50) in [3] worked out at 120 nM; in experiment [2], 3.3 nM. Also, in experiment [4], the Maximum blood pressure change is -11%.

Consider `CCCCc1ncc(/C=C2/C(=O)N(CCCC)C(=O)N2Cc2csc(N)n2)n1Cc1ccc(C(=O)OC)cc1`, for which the half-maximal inhibitory concentration (IC50) in [3] is recorded as 290 nM; in [2] it was 1.2 nM. Moreover, in the experiment on Rattus norvegicus [9], the Max was -39%. The Maximum blood pressure change in [4] was -37%.
